Laboratory results reported in patent publication US4933354A, “2-pyrrolidone-5-carboxylic acid compounds useful for the treatment of mental disorders” (Kissei Pharmaceutical Co., Ltd., priority 1987, dated 1990).

Experiments:
ECS-induced amnesic mice = experiment: One trial passive avoidance task by step-through test (ECS-induced amnesia); type: in vivo, mice (male, dd-strain); conditions: oral, 1 μmole/mouse, 1 hr before training trial; test 24 hr after training
Protocol: Anti-amnesic effects of the compounds were determined by the following tests. Male mice of dd-strain, weighing 23-30 g, were employed for the experiment, and the test compounds were freshly dissolved in saline and administered orally at a dose of 1 μmole/mouse. (1) One trial passive avoidance task by step-through test A shuttle box composed of a light (7 cm high, 9 cm wide and 15 cm depth) and a dark (12 cm high, 13 cm wide and 15 cm depth) box; the former was lighted using […]-white light fluorescent bar lamp placed at the position of 40 cm from the floor and in the latter the stainless steel floor grids 2.5 mm in diameter were placed at intervals of 4 mm in order to give a foot shock. Both boxes were connected with a gate 3 cm in diameter. As the training trial, each animal was placed in the light box and a foot shock ([…]) was delivered through the floor grid immediately after the animal entered into the dark box, accordingly the animal learned a punishment for the entrance. […] Twenty-four hr after the training trial, the animal was placed again in the light box and step-through (ST) latency, time spent until the animal entered the dark box, was measured. […] The ST-latency on the test trial was measured up to 300 and 600 sec for control and amnesic group, respectively.

Acute toxicity = conditions: mouse, in vivo; male SCL-ICR mice, single shot, lethality at 1 week; route not given
Protocol: The test compounds were administered to male mice of SCL-ICR-strain, 7 weeks age, at several dosage (single shot) and LD50, 50% lethal dose, was estimated from the number of lethal mice at 1 week past to the administration.

O=C1CCC(C(=O)OCc2ccc(Cl)cc2)N1 (centres unmarked) [Compound 1, p-Chlorobenzyl 2-pyrrolidone-5-carboxylate]
ST-latency in ECS-induced amnesic mice (ECS-induced amnesic mice): prolonged the ST-latency in ECS-induced amnesic mice significantly | LD50 at 168 h (Acute toxicity): > 2590 mg/kg

O=C1CCC(C(=O)OCc2ccccn2)N1 (centres unmarked) [Compound 2, 2-Pyridylmethyl 2-pyrrolidone-5-carboxylate]
LD50 at 168 h (Acute toxicity): 1540 mg/kg

O=C1CCC(C(=O)OCc2cccnc2)N1 (centres unmarked) [Compound 3, 3-Pyridylmethyl 2-pyrrolidone-5-carboxylate]
LD50 at 168 h (Acute toxicity): > 2590 mg/kg

O=C1CCC(C(=O)OCc2ccncc2)N1 (centres unmarked) [Compound 4, 4-Pyridylmethyl 2-pyrrolidone-5-carboxylate]
LD50 at 168 h (Acute toxicity): > 2590 mg/kg

O=C1CCC(C(=O)OCCc2ccccn2)N1 (centres unmarked) [Compound 5, 2-(2-Pyridyl)ethyl 2-pyrrolidone-5-carboxylate]
LD50 at 168 h (Acute toxicity): > 2590 mg/kg

O=C1CCC(C(=O)OCCCc2ccccn2)N1 (centres unmarked) [Compound 6, 3-(2-Pyridyl)propyl 2-pyrrolidone-5-carboxylate]
LD50 at 168 h (Acute toxicity): < 1250 mg/kg

O=C1CCC(C(=O)NCc2ccccn2)N1 (centres unmarked) [Compound 7, N-(2-Pyridylmethyl)-2-pyrrolidone-5-carboxamide]
LD50 at 168 h (Acute toxicity): > 2590 mg/kg
